± gives the expanded uncertainty stated by the source.
Test: wn = mass fraction of the nth substance listed
Conditions: 101 kPa, Liquid; for speed of sound: Single path-length method; for mass density: Vibrating tube method

CN1CCCC1=O [N-methylpyrrolidone] + CCCCn1cc[n+](C)c1.F[B-](F)(F)F
Conditions | mass density [kg/m3] | speed of sound [m/s] | viscosity [mPa·s]
293.15 K, w2 = 0 | 1034.1 ± 0.2 | 1565.7 ± 0.9 | 1.786 ± 0.049
293.15 K, w2 = 0.0986 | 1052.7 ± 0.2 | 1579.2 ± 1 | 2.568 ± 0.068
293.15 K, w2 = 0.2498 | 1077.9 ± 0.3 | 1582 ± 1.1 | 3.938 ± 0.1
293.15 K, w2 = 0.4971 | 1119.5 ± 0.5 | 1585.5 ± 1.4 | 9.374 ± 0.23
293.15 K, w2 = 0.7413 | 1160.6 ± 0.8 | 1580.1 ± 1.8 | 27.49 ± 0.7
298.15 K, w2 = 0 | 1029.7 ± 0.2 | 1546.1 ± 0.9 | 1.693 ± 0.047
298.15 K, w2 = 0.0986 | 1048.4 ± 0.2 | 1560.5 ± 1 | 2.33 ± 0.062
298.15 K, w2 = 0.2498 | 1073.7 ± 0.3 | 1564.5 ± 1.1 | 3.528 ± 0.091
298.15 K, w2 = 0.4971 | 1115.5 ± 0.5 | 1570.1 ± 1.4 | 8.144 ± 0.2
298.15 K, w2 = 0.7413 | 1156.8 ± 0.8 | 1566.6 ± 1.8 | 22.73 ± 0.57
303.15 K, w2 = 0 | 1025.2 ± 0.2 | 1526.7 ± 0.9 | 1.564 ± 0.044
303.15 K, w2 = 0.0986 | 1044 ± 0.2 | 1541.8 ± 1 | 2.129 ± 0.058
303.15 K, w2 = 0.2498 | 1069.5 ± 0.3 | 1546.8 ± 1.1 | 3.18 ± 0.083
303.15 K, w2 = 0.4971 | 1111.5 ± 0.5 | 1554.5 ± 1.4 | 7.116 ± 0.18
303.15 K, w2 = 0.7413 | 1153 ± 0.8 | 1552.8 ± 1.8 | 19.07 ± 0.48
308.15 K, w2 = 0 | 1020.8 ± 0.2 | 1507.5 ± 0.9 | 1.448 ± 0.042
308.15 K, w2 = 0.0986 | 1039.7 ± 0.2 | 1523.2 ± 1 | 1.953 ± 0.054
308.15 K, w2 = 0.2498 | 1065.4 ± 0.3 | 1529.4 ± 1.1 | 2.884 ± 0.076
308.15 K, w2 = 0.4971 | 1107.5 ± 0.5 | 1539 ± 1.4 | 6.257 ± 0.16
308.15 K, w2 = 0.7413 | 1149.2 ± 0.8 | 1539.2 ± 1.8 | 16.26 ± 0.41
313.15 K, w2 = 0 | 1016.3 ± 0.2 | 1488.3 ± 0.9 | 1.346 ± 0.039
313.15 K, w2 = 0.0986 | 1035.4 ± 0.2 | 1504.8 ± 1 | 1.798 ± 0.05
313.15 K, w2 = 0.2498 | 1061.2 ± 0.3 | 1512 ± 1.1 | 2.627 ± 0.07
313.15 K, w2 = 0.4971 | 1103.5 ± 0.5 | 1523.7 ± 1.4 | 5.544 ± 0.14
313.15 K, w2 = 0.7413 | 1145.4 ± 0.8 | 1525.6 ± 1.8 | 13.88 ± 0.35
318.15 K, w2 = 0 | 1011.9 ± 0.2 | 1469.2 ± 0.9 | 1.258 ± 0.037
318.15 K, w2 = 0.0986 | 1031 ± 0.2 | 1486.6 ± 1 | 1.662 ± 0.047
318.15 K, w2 = 0.2498 | 1057 ± 1 | 1494.8 ± 1.1 | 2.405 ± 0.065
318.15 K, w2 = 0.4971 | 1099.5 ± 0.5 | 1508.4 ± 1.4 | 4.948 ± 0.13
318.15 K, w2 = 0.7413 | 1141.7 ± 0.8 | 1512.2 ± 1.8 | 12.04 ± 0.3
323.15 K, w2 = 0 | 1007.4 ± 0.2 | 1450.4 ± 0.9 | 1.176 ± 0.035
323.15 K, w2 = 0.0986 | 1026.6 ± 0.2 | 1468.4 ± 1 | 1.542 ± 0.044
323.15 K, w2 = 0.2498 | 1052.8 ± 0.3 | 1478 ± 1.1 | 2.214 ± 0.06
323.15 K, w2 = 0.4971 | 1095.5 ± 0.5 | 1493.2 ± 1.4 | 4.444 ± 0.11
323.15 K, w2 = 0.7413 | 1137.9 ± 0.8 | 1498.9 ± 1.8 | 10.54 ± 0.27
328.15 K, w2 = 0 | 1002.9 ± 0.2 | 1431.4 ± 0.9 | 1.103 ± 0.033
328.15 K, w2 = 0.0986 | 1022.3 ± 0.2 | 1450.5 ± 1 | 1.435 ± 0.041
328.15 K, w2 = 0.2498 | 1048.6 ± 0.3 | 1461.1 ± 1.1 | 2.043 ± 0.056
328.15 K, w2 = 0.4971 | 1091.6 ± 0.4 | 1478.1 ± 1.4 | 4.015 ± 0.1
328.15 K, w2 = 0.7413 | 1134.2 ± 0.8 | 1485.6 ± 1.8 | 9.281 ± 0.24
333.15 K, w2 = 0 | 998.4 ± 0.2 | 1412.8 ± 0.9 | 1.037 ± 0.032
333.15 K, w2 = 0.0986 | 1018 ± 0.2 | 1432.6 ± 1 | 1.341 ± 0.039
333.15 K, w2 = 0.2498 | 1044.4 ± 0.3 | 1444.4 ± 1.1 | 1.892 ± 0.052
333.15 K, w2 = 0.4971 | 1087.6 ± 0.4 | 1463.2 ± 1.4 | 3.636 ± 0.095
333.15 K, w2 = 0.7413 | 1130.5 ± 0.7 | 1472.4 ± 1.8 | 8.224 ± 0.21
338.15 K, w2 = 0 | 993.9 ± 0.2 | 1394.4 ± 0.9 | 0.9769 ± 0.03
338.15 K, w2 = 0.0986 | 1013.6 ± 0.2 | 1414.6 ± 1 | 1.258 ± 0.037
338.15 K, w2 = 0.2498 | 1040.2 ± 0.3 | 1427.8 ± 1.1 | 1.76 ± 0.049
338.15 K, w2 = 0.4971 | 1083.6 ± 0.4 | 1448.1 ± 1.4 | 3.34 ± 0.088
338.15 K, w2 = 0.7413 | 1126.7 ± 0.7 | 1459.3 ± 1.8 | 7.318 ± 0.19
343.15 K, w2 = 0 | 989.4 ± 0.2 | 1376 ± 0.9 | 0.923 ± 0.029
343.15 K, w2 = 0.0986 | 1009.2 ± 0.2 | 1396.4 ± 1 | 1.182 ± 0.035
343.15 K, w2 = 0.2498 | 1036 ± 1 | 1411.3 ± 1.1 | 1.641 ± 0.046
343.15 K, w2 = 0.4971 | 1079.6 ± 0.4 | 1432.9 ± 1.4 | 3.064 ± 0.081
343.15 K, w2 = 0.7413 | 1123 ± 1 | 1445.8 ± 1.8 | 6.555 ± 0.17
